Drawing on the METLIN SMRT retention time set (Domingo-Almenara et al. 2019), this text covers RP-LC retention time for 79 compounds.

A short description of this data set: gradient 5% acetonitrile 3 min, to 50% in 2 min, to 85% in 15 min, held 3 min, 100 µL/min. The following applies: column: Zorbax Extend-C18 2.1 x 50 mm; eluents: water / acetonitrile, 0.1% formic acid. The gist of the method:
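Mixtures of ~100 pure standards were chromatographed on a Zorbax Extend-C18 column (2.1 × 50 mm, 1.8 μm) at 100 μL/min using water and acetonitrile, each with 0.1% formic acid. Detection used a quadrupole time-of-flight mass spectrometer in positive and negative ionization mode, and data collection spanned 3 months. Retention time was obtained from adduct peaks picked computationally and each checked manually.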
Regarding `CCOc1ccc(N2C(=O)C3N=NN(Cc4nc(-c5ccc(Br)cc5)no4)C3C2=O)cc1` (centres undefined), the RP-LC retention time amounted to 1050 s.

The compound `CCc1ccc(NC(=O)Cc2c(C)nn(-c3nc(-c4ccc(F)cc4)cs3)c2C)cc1` came in with an RP-LC retention time of 1240 s.

Regarding `NCCc1ccc(S(=O)(=O)F)cc1`, the RP-LC retention time was determined as 653 s.

`Cc1cc(C)cc(N2CCC(NC(=O)Nc3cccc(C)c3C)C2=O)c1` (centres undefined): the RP-LC retention time came out at 922 s.

In the case of `CCC(=O)N1CCC(Cc2noc(C3CC3)n2)C1` (centres undefined), the RP-LC retention time is 671 s.

`O=C(c1ccc(F)c(F)c1)N1CCN(C(=O)c2nnn3c2COC(c2ccc(Cl)cc2)C3)CC1` (centres undefined) yielded an RP-LC retention time of 937 s.

For `COc1cc(NC(=O)N2CCN(c3ccc(=O)n(-c4ccc(C)cc4)n3)CC2)cc(OC)c1OC`, the RP-LC retention time was 749 s.

Turning to `CCc1ccc(NC(=O)Cn2c(=O)c3cc(C)nn3c3ncccc32)cc1`, the RP-LC retention time stood at 786 s.

On to `Cc1[nH]c(C)c(S(=O)(=O)N2CCC(C(=O)NC3CCCCC3)CC2)c1C(=O)N1CCCCC1`, for which the RP-LC retention time amounted to 720 s.

In the case of `CCN1C(=O)COc2ccc(-c3nc(NC(=O)c4ccccc4C)sc3C)cc21`, the RP-LC retention time is 1010 s.

The compound `O=C(Cc1c[nH]c2ccccc12)NCCc1c[nH]c2ccc(Cl)cc12` gave an RP-LC retention time of 857 s.

Turning to `CCCS(=O)(=O)c1nc2ccc(NS(=O)(=O)c3cc(C)c(C)cc3C)cc2s1`, the RP-LC retention time is 1040 s.

`O=C(CSc1nnc2c(=O)n(-c3ccc(Br)cc3)ccn12)c1ccccc1` displayed an RP-LC retention time of 866 s.

The compound `Cc1ccc(CNC(=O)CCC2CCN(c3cc(NC4CC4)ncn3)CC2)o1` came in with an RP-LC retention time of 660 s.

`CCNC(=O)N1CCC(c2noc(-c3cccnc3)n2)C1` (centres undefined) yielded an RP-LC retention time of 605 s.

For the compound `O=C(C1=NN(Cc2cccc(F)c2)c2ccc(Cl)cc2S1(=O)=O)N1CCOCC1`, the RP-LC retention time was 875 s.

`O=c1c2nc(-c3ccc(F)cc3)cn2ccn1-c1ccc(F)cc1`: the RP-LC retention time is 795 s.

In turn, `CCC1CN2C=NC(N3CCN(C(=O)Nc4ccc(OC)cc4)CC3)=CC2=N1` (centres undefined) came in with an RP-LC retention time of 600 s.

In the case of `COc1c(C=O)c2c(c(OC)c1OC)-c1ccc(OC)c(=O)cc1[C@@H](NC(C)=O)CC2`, the RP-LC retention time was found to be 725 s.

As to `O=C(NCCCN1CCCCC1)C1CCN(c2cncnc2N2CCCCC2)CC1`, the RP-LC retention time was 569 s.

With `CC(C)Cn1cc(CCNC(=O)c2c(F)cccc2F)c2cccnc21`, the RP-LC retention time is 788 s.

`CCCN(C(=O)c1ccc2c(c1)OCO2)c1nc(-c2ccccc2)cs1`: the RP-LC retention time is 1260 s.

Consider `CC(C)N1CC2(CCN(S(=O)(=O)c3ccccc3)CC2)C1c1ccccc1` (centres undefined), for which the RP-LC retention time was found to be 690 s.

As to `CCOc1cc(C)c(C)cc1S(=O)(=O)Nc1ccc(Cl)cn1`, the RP-LC retention time amounted to 961 s.

`COc1ccc(Cl)cc1NC(=O)C(C)Oc1cc(C(F)(F)F)c2c(C)nn(C)c2n1` (centres undefined) came in with an RP-LC retention time of 1200 s.

Compound `Cc1noc(-c2ccnc(-n3cnc(C(=O)NCc4ccccc4F)c3)c2)n1` yielded an RP-LC retention time of 833 s.

`CC(C)Oc1ccc(CNC(=O)CN2CCN(Cc3ccc(F)cc3)C2=O)cc1`: the RP-LC retention time was found to be 865 s.

For the compound `COc1ccc(-c2cn3c(CC(=O)N4CCN(c5ccc(Cl)cc5)CC4)csc3n2)cc1OC`, the RP-LC retention time was 816 s.

`CCn1cc(-c2nc(C(=O)Nc3ccc(F)cc3F)cs2)c2cccnc21`: the RP-LC retention time was 1220 s.

`O=C(NC1CCCCCC1)c1cccc(-c2nccnc2N2CCCC2)c1` yielded an RP-LC retention time of 1000 s.

For `CCc1ccc(CN2C(=O)C3(CCOCC3)CC2c2nnnn2C(C)(C)C)cc1` (centres undefined), the RP-LC retention time was 862 s.

Compound `CCC(C)NC(=O)Cn1c(=O)c2cnc(-c3ccccc3)nc2n(C)c1=O` (centres undefined) returned an RP-LC retention time of 854 s.

For the compound `CCN(CCCNC(=O)C1CCCN(c2ncnc3c2nc2n3CCCCC2)C1)Cc1ccccc1` (centres undefined), the RP-LC retention time turned out to be 623 s.

In the case of `Cc1ccccc1CN1C[C@@H]2C(=O)N(CCCN3CCCC3=O)C(=O)[C@@H]2C1`, the RP-LC retention time came out at 606 s.

Regarding `CC(=O)c1c(C)n(CC(=O)NCc2cc3c(cc2C)OCCCO3)c2ccccc12`, the RP-LC retention time turned out to be 826 s.

Compound `CCc1cccc(NC(=O)N(C)CC2CCOC2)c1` (centres undefined) yielded an RP-LC retention time of 739 s.

As for `c1ccc2c(-c3nnc(C4CC4)o3)nnc(NC3CCCCC3)c2c1`, the RP-LC retention time was determined as 793 s.

`CC(C)N1CCC2(CC1)N=C(c1ccc3c(c1)OCO3)CC(c1ccccc1O)N2` (centres undefined) returned an RP-LC retention time of 593 s.

`O=C(C1=CN(c2cccc(F)c2)c2cc(Cl)ccc2S1(=O)=O)N1CCCC1`: the RP-LC retention time was found to be 838 s.

`CC(C)CCn1c(SCc2cc(=O)n3ccccc3n2)nc2c(-c3ccccc3)cn(C)c2c1=O` yielded an RP-LC retention time of 1200 s.

`Cc1cc(C)n(-c2ccnc(N3CCC(C(=O)NCC4CCCO4)CC3)n2)n1` (centres undefined) returned an RP-LC retention time of 674 s.

`O=C(c1ccc(Br)cc1)N1CCc2cc(-c3ccno3)ccc21` registered an RP-LC retention time of 1030 s.

Consider `Cc1sc2ccn(C)c(=O)c2c1C(=O)NC(C)c1ccc(F)cc1` (centres undefined), for which the RP-LC retention time was determined as 779 s.

On to `c1ccc(-c2nnc(Cc3ccc4c(c3)OCO4)o2)cc1`, for which the RP-LC retention time amounted to 894 s.

`CC(C)CCNC(=O)C1CCCN(c2cc(=O)n(C)c(=O)n2C)C1` (centres undefined): the RP-LC retention time is 677 s.

Regarding `Cn1ncc2c(N3CCOCC3)nc(C(=O)NCCc3cccs3)nc21`, the RP-LC retention time was determined as 710 s.

Consider `Cc1ccc(NC(=O)Cn2ccc3sccc3c2=O)c(C)c1`, for which the RP-LC retention time was determined as 766 s.

Compound `O=C(CN1CCN(Cc2ccccc2F)C1=O)NC1CCN(Cc2ccccc2)CC1` displayed an RP-LC retention time of 610 s.

`CC(C)Sc1ccc(CC(=O)NCC2CCN(C(=O)Nc3ccc(F)cc3)CC2)cc1` registered an RP-LC retention time of 860 s.

With `N#Cc1ccsc1NC(=O)c1ccc(S(=O)(=O)N2CCOCC2)cc1`, the RP-LC retention time was 749 s.

In turn, `Fc1ccc(OCc2nc(C3CCNC3)no2)cc1` (centres undefined) returned an RP-LC retention time of 626 s.

Regarding `O=C(COc1ccccc1-c1nnc(-c2ccccc2)o1)N1CCN(C(=O)c2ccco2)CC1`, the RP-LC retention time is 760 s.

`COC[C@@H]1CN(S(=O)(=O)c2ccc(C#N)cc2)C[C@H]1c1ccccn1` had an RP-LC retention time of 746 s.

For `CCc1cc(=O)n(CC(=O)Nc2cccc(C)c2)c(N)n1`, the RP-LC retention time was found to be 600 s.

In the case of `CCCCCNC(=O)c1sccc1S(=O)(=O)N(C)c1ccc(OCC)cc1`, the RP-LC retention time stood at 1190 s.

Regarding `O=C(NC1CCCC1)c1cccn1Cc1noc(-c2ccc(Cl)cc2)n1`, the RP-LC retention time stood at 1100 s.

`CCOc1ccccc1NC(=O)N1CCCC1c1nc(-c2ccc(OC)cc2)no1` (centres undefined) registered an RP-LC retention time of 1100 s.

Consider `Cn1ncc(NC(=O)c2ccccc2F)c(N2CCOCC2)c1=O`, for which the RP-LC retention time is 777 s.

With `O=C(Nc1ccc(Cl)cc1F)C1CCc2nc(N3CCOCC3)ncc2C1` (centres undefined), the RP-LC retention time amounted to 856 s.

`CCc1nnc2cc(N3CCN(Cc4ccc(OC(C)C)cc4)CC3)cnn12` yielded an RP-LC retention time of 545 s.

The compound `CCCN1C(=O)COc2ccc(-c3csc(NC(=O)COC)n3)cc21` registered an RP-LC retention time of 823 s.

Take `CCC(C)NC(=O)C1CCN(c2nccc(-n3nc(C)cc3C)n2)CC1` (centres undefined): the RP-LC retention time was found to be 745 s.

In turn, `CCn1c(=O)oc2cc(-c3noc(COc4ccccc4)n3)ccc21` displayed an RP-LC retention time of 1020 s.

`Cc1nnc(-c2ccc3ccn(CC(=O)NCCC(C)C)c3c2)o1` had an RP-LC retention time of 754 s.

As to `COc1ccc(-c2c(C)noc2NC(C)=O)cc1S(=O)(=O)N1CCN(c2ccc(F)cc2)CC1`, the RP-LC retention time was 843 s.

`O=C1CC(c2cc(F)cc(F)c2)Cc2nc(N3CCN(c4ccccc4)CC3)ncc21` (centres undefined) came in with an RP-LC retention time of 1270 s.

On to `Cc1ccc(NC(=O)c2csc(-c3cn(C)c4ncccc34)n2)c(F)c1`, for which the RP-LC retention time turned out to be 1160 s.

`CCc1nn2c(CNC(=O)c3cccc(Cl)c3)c(-c3ccccc3)nc2s1` returned an RP-LC retention time of 998 s.

As for `O=C(Nc1ccc(F)c(F)c1)c1c(O)c2cccnc2n(Cc2ccccc2)c1=O`, the RP-LC retention time was determined as 1140 s.

Regarding `CS(=O)(=O)NCCc1ccc(CC2CCN(S(=O)(=O)c3cccnc3)CC2)cc1`, the RP-LC retention time was determined as 814 s.

Compound `COc1ccc(C)cc1NC(=O)Cn1nc(N2CCSCC2)c2ccccc2c1=O` came in with an RP-LC retention time of 1040 s.

`CN(C)C(=O)c1cc2c(s1)CCC(C(=O)Nc1ccccc1)C2` (centres undefined) had an RP-LC retention time of 772 s.

Take `CCOc1ccc(NC(=O)C2CC(=O)N(CCc3c[nH]c4ccc(Cl)cc34)C2)cc1` (centres undefined): the RP-LC retention time is 870 s.

`CCc1ccc(S(=O)(=O)Nc2ccc(C3(C(=O)NCC4CCCO4)CC3)cc2)cc1` (centres undefined) came in with an RP-LC retention time of 867 s.

Take `O=C(Nc1ccccc1F)N1CCCC1c1nc(-c2cccc(Cl)c2)no1` (centres undefined): the RP-LC retention time turned out to be 1060 s.

In turn, `CCOC(=O)c1c(C)[nH]c(CCC(=O)NCCOC)c1C` returned an RP-LC retention time of 668 s.

`Cc1ccc(-c2cc3c4nnc(CCC(=O)N5CCN(c6ccccn6)CC5)n4ccn3n2)cc1C` registered an RP-LC retention time of 650 s.

On to `CNC(=O)c1cc(Oc2ccc(NC(=O)Nc3ccc(Cl)c(C(F)(F)F)c3)cc2)ccn1`, for which the RP-LC retention time amounted to 1190 s.

Turning to `O=C(C1CCCN(c2nccnc2Sc2ccccc2)C1)N1CCCCCC1` (centres undefined), the RP-LC retention time was determined as 1120 s.
